This is an account of results in patent US12679838B2, “Aromatic compound and application thereof in antitumor drug” (Shanghai Zheye Biotechnology Co., Ltd., priority 2020, dated 2026).

Like-named read-outs stand apart in the source and are kept apart here.

The subject of one assay is NCI-H358 cells. The assay can be described thus: Cell proliferation inhibitory activity, NCI-H358 (CellTiter-Glo). In kind it is cell-based. The following applies: for IC50: Homo sapiens. The method, then:
(§1) NCI-H358 cells in an exponential growth phase were digested with trypsin-EDTA and plated in a 96-well plate at 2000-3000 cells per well and incubated overnight at 37° C. with 5% CO2. A test compound was prepared as a mother liquor with DMSO, diluted with a RPMI 1640 growth medium in a concentration gradient and added to the 96-well plate and incubated for 72 hours at 37° C. in a 5% CO2 incubator. After incubation, an equal volume of CellTiter-Glo detection reagent was added to each well and incubated after shaking, and a chemiluminescence value was measured by a microplate reader, and the IC50 value for the inhibition of NCI-H358 cell proliferation was fitted and calculated by GraphPad Prism software.
The inhibitory effect of the compounds on the proliferation activity of H358 cells was tested with reference to the method of the biological test 2, and the results were as follows:
The inhibitory effect of the compounds on the proliferation activity of NCI-H358 cells was tested with reference to the method of the biological test 2, and the results were as follows.

The subject of a further assay is MIA PaCa-2 cells. In words: Cell proliferation inhibitory activity, MIA PaCa-2 (CellTiter-Glo). In kind it is cell-based. The settings on record: for IC50: Homo sapiens, MIA PaCa-2 cells, 72 hours. As to the method: as §1, with “MIA PaCa-2” for “NCI-H358”, “DMEM” for “RPMI 1640”
The subject of assay [1] is NCI-H358 tumor cells xenograft. The assay can be described thus: Pharmacodynamics test of xenograft tumor model of NCI-H358 in nude mice. It is filed as in vivo, Balb/c Nude mice. The following applies: NCI-H358 xenograft, 100 mg/kg, QD×15 days, oral gavage. The method, then: Animal species and number: Balb/c Nude; 6 animals per group.
Samples for testing: compound 3-2M, compound 3-16M, TM-1, TM-3, and AMG510 (obtained by purchasing).
Test groups: blank solvent control group; compound 3-2M (100 mg/kg, QD×15 days), compound 3-16M (100 mg/kg, QD×15 days), TM-1 (100 mg/kg, QD×15 days), TM-3 (100 mg/kg, QD×15 days); and AMG510 (100 mg/kg, QD×15 days).
Animal model establishment: NCI-H358 tumor cells at logarithmic phase were cultured and collected in vitro, and inoculated subcutaneously on the right side of the back of nude mice at a quantity of 5×10^6 cells/each, and the tumor-bearing nude mice were randomly grouped when the tumor volume grew to 150-300 mm^3. Subsequently, each group of animals was administered and the day of the first administration was defined as day 1 of the test.
Administration route and frequency: oral gavage; and once a day.
General state observation: observation time and frequency: once a day; observation index or content: including, but is not limited to local administration, appearance and signs, general behavioral activities, mental status, death and other abnormal manifestations of the animals. The animals were euthanized at the end of the test.
Tumor volume calculation: V=½×long diameter× short diameter^2 (mm^3). Tumor growth inhibition ratio TGI (%) was used to evaluate the tumor suppressive efficacy of the compounds. TGI (%)=[1-(mean tumor volume at the end of administration of the treatment group−mean tumor volume at the beginning of administration of the treatment group)/(mean tumor volume at the end of administration of the control group−mean tumor volume at the beginning of administration of the control group)]×100%.

Where [2] appears, read: NCI-H358, biological test 3, H358 cells, read-out: Cell proliferation inhibitory activity IC50 value of H358.
[3] abbreviates: NCI-H358, 72 h, biological test 2, NCI-H358 cells, 72 hours, read-out: Cell proliferation inhibitory activity IC50 value of H358.
[4] abbreviates: NCI-H358, biological test 7, NCI-H358 cells, read-out: Cell proliferation inhibitory activity IC50 value of NCI-H358.

For `C=CC(=[18O])N1CCN(c2nc(=O)n(-c3c(C)ccnc3C(C)C)c3nc(-c4ccccc4C=O)c(Cl)cc23)[C@@H](C)C1` [Compound 3-1MIS], in the assay with NCI-H358 cells, the “cell proliferation inhibitory activity against KRAS G12C mutant cells NCI-H358 (in words)” value was “significant cell proliferation inhibitory activities”. The IC50 in the assay on NCI-H358 cells (setting [2]) is below 50 nM.
The like results for `C=CC(=[18O])N1CCN(c2nc(=O)n(-c3c(CC)ccnc3C(C)C)c3nc(-c4ccccc4C=O)c(Cl)cc23)[C@@H](C)C1` [Compound 3-2MIS] were, in that order, “significant cell proliferation inhibitory activities” and below 50 nM.
In the case of `C=CC(=O)N1CCN(c2nc(=O)n(-c3c(C)ccnc3C(C)C)c3nc(-c4ccccc4C=O)c(Cl)cc23)[C@@H](C)C1` [Compound 3-2], in the assay with MIA PaCa-2 cells, the “cell proliferation inhibitory activity against KRAS G12C mutant cells MIA PaCa-2 (in words)” value is recorded as “significant cell proliferation inhibitory activities” and the IC50 was below 50 nM. Moreover, the “cell proliferation inhibitory activity against KRAS G12C mutant cells NCI-H358 (in words)” value in the assay with NCI-H358 cells is “significant cell proliferation inhibitory activities”. In addition, the IC50 in the assay with NCI-H358 cells (setting [3]) is at most 50 nM.
As to `C=CC(=[18O])N1CCN(c2nc(=O)n(-c3c(C)ccnc3C(C)C)c3nc(-c4c(F)cccc4C=O)c(Cl)cc23)[C@@H](C)C1` [Compound 3-3MIS], the “cell proliferation inhibitory activity against KRAS G12C mutant cells NCI-H358 (in words)” value with NCI-H358 cells was “significant cell proliferation inhibitory activities”. Besides, the IC50 in the assay on NCI-H358 cells (setting [2]) was below 50 nM.
In the same order, the values of `C=CC(=[18O])N1C[C@H](C)N(c2nc(=O)n(-c3c(C)ccnc3C(C)C)c3nc(-c4ccccc4C=O)c(Cl)cc23)[C@@H](C)C1` [Compound 3-4MIS] are “significant cell proliferation inhibitory activities” and below 50 nM.
The like results for `[2H]C(=O)c1ccccc1-c1nc2c(cc1Cl)c(N1CCN(C(=[18O])C=C)C[C@@H]1C)nc(=O)n2-c1c(C)ccnc1C(C)C` [Compound 3-5MIS] were, in that order, “significant cell proliferation inhibitory activities” and below 50 nM.
As for `[2H]C(=O)c1ccccc1-c1nc2c(cc1Cl)c(N1CCN(C(=O)C=C)C[C@@H]1C)nc(=O)n2-c1c(CC)ccnc1C(C)C` [Compound 3-6B], the “cell proliferation inhibitory activity against KRAS G12C mutant cells NCI-H358 (in words)” value in the assay with NCI-H358 cells is recorded as “significant cell proliferation inhibitory activities”. Also, the IC50 with NCI-H358 cells (setting [3]) is at most 50 nM; with NCI-H358 cells (setting [4]), below 50 nM.
Regarding `[2H]C(=O)c1ccccc1-c1nc2c(cc1Cl)c(N1CCN(C(=[18O])C=C)C[C@@H]1C)nc(=O)n2-c1c(CC)ccnc1C(C)C` [Compound 3-6MIS], in the assay on NCI-H358 cells, the “cell proliferation inhibitory activity against KRAS G12C mutant cells NCI-H358 (in words)” value is “significant cell proliferation inhibitory activities”. The IC50 with NCI-H358 cells (setting [2]) is below 50 nM.
Consider `C=CC(=O)N1CCN(c2nc(=O)n(-c3c(C)ccnc3C(C)C)c3nc(-c4c(F)cccc4C=O)c(Cl)cc23)[C@@H](C)C1` [Compound 3-6P], for which the IC50 in the assay on NCI-H358 cells (setting [3]) was above 50 nM.
With `C=CC(=O)N1CCN(c2nc(=O)n(-c3c(C)ccnc3C(C)C)c3nc(-c4c(F)cccc4C=O)c(Cl)cc23)[C@@H](C)C1` [Compound 3-6], in the assay with MIA PaCa-2 cells, the “cell proliferation inhibitory activity against KRAS G12C mutant cells MIA PaCa-2 (in words)” value is on record as “significant cell proliferation inhibitory activities” and the IC50 is below 50 nM. The “cell proliferation inhibitory activity against KRAS G12C mutant cells NCI-H358 (in words)” value in the assay with NCI-H358 cells was “significant cell proliferation inhibitory activities”.
In the case of `[2H]C(=O)c1cccc(F)c1-c1nc2c(cc1Cl)c(N1CCN(C(=[18O])C=C)C[C@@H]1C)nc(=O)n2-c1c(C)ccnc1C(C)C` [Compound 3-7MIS], the “cell proliferation inhibitory activity against KRAS G12C mutant cells NCI-H358 (in words)” value with NCI-H358 cells was “significant cell proliferation inhibitory activities”. For the same compound, the IC50 with NCI-H358 cells (setting [2]) is below 50 nM.
As for `[2H]C(=O)c1ccccc1-c1nc2c(cc1Cl)c(N1[C@@H](C)CN(C(=[18O])C=C)C[C@@H]1C)nc(=O)n2-c1c(C)ccnc1C(C)C` [Compound 3-8MIS], the “cell proliferation inhibitory activity against KRAS G12C mutant cells NCI-H358 (in words)” value in the assay with NCI-H358 cells is recorded as “significant cell proliferation inhibitory activities”. For the same compound, the IC50 in the assay with NCI-H358 cells (setting [2]) is below 50 nM.
`[2H]C(=O)c1ccccc1-c1nc2c(cc1Cl)c(N1[C@@H](C)CN(C(=O)C=C)C[C@@H]1C)nc(=O)n2-c1c(C)ccnc1C(C)C` [Compound 3-14]: the “cell proliferation inhibitory activity against KRAS G12C mutant cells NCI-H358 (in words)” value in the assay on NCI-H358 cells is reported as “significant cell proliferation inhibitory activities”. Moreover, the IC50 in the assay with NCI-H358 cells (setting [3]) is at most 50 nM.
Take `C=CC(=O)N1C[C@H](C)N(c2nc(=O)n(-c3c(C)ccnc3C(C)C)c3nc(-c4ccccc4C=O)c(Cl)cc23)C[C@H]1C` [Compound 3-17M]: in the assay with MIA PaCa-2 cells, the “cell proliferation inhibitory activity against KRAS G12C mutant cells MIA PaCa-2 (in words)” value was “significant cell proliferation inhibitory activities” and the IC50 is below 50 nM.
On to `C=CC(=O)N1C[C@H](C)N(c2nc(=O)n(-c3c(C)ccnc3C(C)C)c3nc(-c4c(F)cccc4C=O)c(Cl)cc23)C[C@H]1C` [Compound 3-19M], for which, in the assay with MIA PaCa-2 cells, the “cell proliferation inhibitory activity against KRAS G12C mutant cells MIA PaCa-2 (in words)” value was “significant cell proliferation inhibitory activities” and the IC50 is below 50 nM.
For the compound `[2H]C(=O)c1ccccc1-c1nc2c(cc1Cl)c(N1CCN(C(=O)C=C)C[C@]1([2H])C)nc(=O)n2-c1c(C)ccnc1C(C)C` [Compound 3-28M], the “cell proliferation inhibitory activity against KRAS G12C mutant cells NCI-H358 (in words)” value in the assay on NCI-H358 cells is reported as “significant cell proliferation inhibitory activities”. For the same compound, the IC50 in the assay with NCI-H358 cells (setting [3]) was at most 50 nM.
Regarding `C=CC(=O)N1CCN(c2nc(=O)n(-c3c(C(C)C)ncnc3C(C)C)c3nc(-c4ccccc4C=O)c(Cl)cc23)[C@@H](C)C1` [Compound 3-31], in the assay on NCI-H358 cells, the “cell proliferation inhibitory activity against KRAS G12C mutant cells NCI-H358 (in words)” value was “significant cell proliferation inhibitory activities”. The IC50 in the assay with NCI-H358 cells (setting [4]) is below 50 nM.
As for `C=CC(=O)N1CCN(c2nc(=O)n(-c3c(C)ccnc3C(C)C)c3nc(-c4ccccc4C(C)=O)c(Cl)cc23)[C@@H](C)C1` [TM-1, reference compound], the “Tumor suppression ratio (%)” value in assay [1] is “++ (“++” represents that the tumor suppression ratio is between 60% and 100%)”. For the same compound, the IC50 with NCI-H358 cells (setting [4]) was in the range of 50 to 150 nM.
As to `C=CC(=O)N1C[C@H](C)N(c2nc(=O)n(-c3c(C)ccnc3C(C)C)c3nc(-c4ccccc4C(N)=O)c(Cl)cc23)C[C@H]1C` [TM-2, reference compound], in the assay on NCI-H358 cells (setting [4]), the IC50 is above 150 nM.
As for `C=CC(=O)N1C[C@H](C)N(c2nc(=O)n(-c3c(C)ccnc3C(C)C)c3nc(-c4ccccc4C(=O)O)c(Cl)cc23)C[C@H]1C` [TM-3, reference compound], the “Tumor suppression ratio (%)” value in assay [1] is reported as “+ (“+” represents that the tumor suppression ratio is less than 60%)”. For the same compound, the IC50 with NCI-H358 cells (setting [4]) was above 150 nM.
